Results as given in patent US20150104870A1, “NEURONAL DIFFERENTIATION PROMOTER” (KEIO UNIVERSITY, priority 2012, published 2015).
“Also recorded” adds a separate entry of the source.

Tests used:
[1] = test system: p2 neurospheres; experiment: Mouse ESC-derived neurosphere differentiation assay; assay type: cell-based; details: for neuronal differentiation (βIII-tubulin-positive neurons) of p2 neurospheres: lentiviral overexpression in NSCs from p0 stage, differentiated at p2, control miR-LacZ
Procedure: (§1) Mouse ESC (EB3) culture, EB formation, neurosphere formation and differentiation of neurosphere were performed as previously described (Nat. Neurosci. 11, 1014-1023 (2008)). Human NSCs were grown as previously described (J. Neurosci. Res. 69, 869-879 (2002); J. Neurosci. Res. 87, 307-317 (2009)) without […] growth factor (EGF), and allowed to differentiate on a substrate-coated coverslips in the absence of mitogen for 14 days, a procedure similar to that used for mouse neurosphere.
(§2) Immunocytechemistry and immunohistochemistry were performed as previously described (Nat. Neurosci. 11, 1014-1023 (2008)) using antibodies against βIII-tubulin, NeuN (neural marker), glial fibrillary acidic protein (GFAP, astrocyte marker), and haemagglutinin (HA).

[2] = test system: human fetal brain-derived neurospheres; experiment: Human neurosphere differentiation assay; assay type: cell-based; details: human neurospheres treated with inhibitor, vs control
Procedure: as §1, §2

[3] = test system: developing mouse brain; experiment: In utero lentiviral microinjection, fate of infected cells in cerebral cortex; assay type: in vivo; details: lentivirus injected in utero at E10.5, examined at P30
Procedure: Experiments were performed using ICR mice. All aspects of animal care and treatment were carried according to the guidelines of the Experimental Animal Committee of Keio University School of Medicine. In utero microinjection of lentivirus particles into the brain of E10.5 ICR mouse was guided by an in vivo ultrasound real-time scanner (Vevo660; VisualSonics).
as §2

[4] = test system: Gfap promoter; experiment: Bisulfite sequencing of CpG methylation status; assay type: cell-based, mouse
Text: The methylation frequency of 10 CpG sequences on the Gfap promoter, including the CpG site in the STAT3-binding sequence as indicated by the arrows, was examined. The graphs show the percentages of methylated CpG cytosines in the whole Gfap promoter (left graph) and the STAT3-binding region (right graph) (t test, n (≧10 clones)=3, NS (not significant), P>0.05). Bars and error bars represent the mean+s.e.m for each condition.

[5] = test system: miR-17 binding site in 3′UTR of p38 mRNA; experiment: DsRed-Express2 reporter assay (Mp38 sensor) in HEK293 cells; assay type: cell-based, human; details: HEK293 stable transformant, FACS one week after lentivirus, compared to miR-LacZ
Text: FIG. 17 is a graph showing that miR-17 binds to a binding site in the 3′ untranslated region (UTR) of mouse p38 mRNA. […] The miR-17 binding site in 3′UTR of p38 mRNA (to be referred to as “Mp38 sensor”; 2970-2992 of NM_011951) was cloned into a mammal expression vector of the DsRed-Express2 reporter system. After transformation of HEK293 cells, lentiviruses expressing miR-LacZ or miR-17 were introduced into a stable transformant. One week later, the intracellular expression level of DsRed-Express2 was analyzed by FACS. […] (t-test, n (≧3000 cells)=3, **P<0.01). Bars and error bars represent the mean+s.e.m for each condition.

[6] = test system: p38; experiment: Western blotting of p38 expression in neurospheres; assay type: cell-based, mouse; details: p2 neurospheres

C[S+]([O-])c1ccc(-c2nc(-c3ccncc3)c(-c3ccc(F)cc3)[nH]2)cc1 (stereo not drawn) [SB203580, reference compound]
percentage of neurons differentiated from p2 neurospheres (neuropotency) ([1]; mouse p2 neurospheres, treatment with inhibitor during growth, vs control): showed higher neuropotency than controls; also recorded: increased the percentage of neurons differentiated from p2 neurospheres | percentage of neurons differentiated from human neurospheres (neuropotency) [2]: restored neuropotency; also recorded: increased the percentage of neurons differentiated from the neurospheres

miR-17: miRNA targeting p38, SEQ ID NO: 5, overexpressed by lentivirus (guide CAAAGUGCUUACAGUGCAGGUAG; listed as Mus musculus)
infected cells fated to become neurons in the cerebral cortex [3]: 97.6% | CpG methylation of Gfap promoter ([4]; p2 neurosphere stage, overexpression from p0): no significant changes in the extent of CpG methylation | DNA methylation status of the Gfap promoter ([4]; p3 neurospheres): did not change significantly | differentiation of p2 neurospheres in presence of gliogenic cytokines ([1]; LIF (10 ng/ml) and BMP2 (100 ng/ml) during differentiation, p2 stage): differentiated exclusively into neurons; also recorded: did not undergo gliogenesis | neuropotency of p3 neurospheres ([1]; lentiviral infection at onset of p3 stage, within 1 week): marked recovery of neuropotency; also recorded: restored neuropotency of mouse p3 neurospheres | neuronal differentiation (βIII-tubulin-positive neurons) of p2 neurospheres [1]: replicated the phenotype induced by the intact miR-17-92 cluster | DsRed-Express2 reporter expression linked to Mp38 sensor / interaction with p38 mRNA [5]: direct interaction; also recorded: caused a decrease in DsRed-Express2 | p38 protein expression [6]: suppressed p38 expression at p2 stage

miR-106a: miRNA targeting p38, SEQ ID NO: 6, paralog of miR-17 (CAAAGUGCUAACAGUGCAGGUAG; listed as RNA, chemistry not fully specified; listed as Mus musculus)
neuronal differentiation (βIII-tubulin-positive neurons) of p2 neurospheres [1]: led to a neuronal phenotype

miR-106b: miRNA targeting p38, SEQ ID NO: 7, paralog of miR-17 (UAAAGUGCUGACAGUGCAGAU; listed as RNA, chemistry not fully specified; listed as Mus musculus)
neuronal differentiation (βIII-tubulin-positive neurons) of p2 neurospheres [1]: led to a neuronal phenotype; also recorded: stronger than that of miR-106a
